Assay results taken from patent US11352352B2, “Aminopyrimidine compound, preparation method therefor and use thereof” (BEIJING ADAMADLE BIOTECHNOLOGY LIMITED LIABILITY COMPANY, priority 2017, dated 2022).
pIC50: −log10 of the molar value.

Tests used:
Assay in all cases: Cell proliferation inhibition experiment, CellTiter-Glo (CTG) method
Assay type in all cases: cell-based
[1] = tested on: A-431; conditions: Homo sapiens, A-431, 72 h, A-431 cells, 3 days
Procedure, shortened: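 CTG luminescence measured after 3-day compound exposure, with a T0 plate read the day after seeding and solvent wells as control. Nine concentrations, 3-fold steps, in triplicate: A-431 from 30 μM, NCI-H1975 and PC-9 from 1.111 μM. IC50 derived by non-linear S-curve regression.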

[2] = tested on: NCI-H1975; conditions: for pIC50: Homo sapiens, NCI-H1975, 72 h, NCI-H1975 cells, CTG, 3 days; for A-431/NCI-H1975 Selectivity: ratio of A-431 IC50 to NCI-H1975 IC50
Procedure, shortened: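 NCI-H1975 cells with viability above 90% by trypan blue were seeded at 90 μL per well in black 96-well plates and incubated overnight at 37° C., 5% CO2. Compounds were added at nine concentrations in triplicate, and viability was measured with CellTiter-Glo luminescence on EnVision. IC50 came from non-linear S-curve fitting in GraphPad Prism 5.0.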

[3] = tested on: PC-9; conditions: Homo sapiens, PC-9, 72 h, PC-9 cells, 3 days
Procedure, shortened: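 Cells in log-phase growth (viability above 90% by trypan blue) were seeded at 90 μL per well in black-walled, clear-bottom 96-well plates and incubated overnight at 37° C., 5% CO2. A T0 plate was read the next day. Test compounds were added at nine concentrations in triplicate with a solvent control. Viability was measured by CellTiter-Glo luminescence on EnVision, and IC50 came from non-linear S-curve fitting in GraphPad Prism 5.0.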

Structure (SMILES)	pIC50 [1]	pIC50 [2]	pIC50 [3]	A-431/NCI-H1975 Selectivity [2]
C=CC(=O)Nc1cc(Nc2cc(-c3ccc4nc(C)sc4c3)ncn2)c(OC)cc1OCCN(C)C [compound 285]	6.20	7.39	7.64	15.6
C=CC(=O)Nc1cc(Nc2nccc(-c3ccc4c(cnn4C)c3)n2)c(OC)cc1N(C)CCN1CCN(C)CC1 [compound 244]	5.62	7.22	7.07	40.2
C=CC(=O)Nc1cc(Nc2cc(-c3ccc4cnn(C)c4c3)ncn2)c(OC(F)F)cc1NCCN(C)C [compound 181]	5.77	7.34	7.67	36.7
C=CC(=O)Nc1cc(Nc2cc(-c3ccc4c(cnn4C)c3)ncn2)c(OC)cc1OCCN1CCCCC1 [compound 189]	5.58	6.96	7.62	24.3
C=CC(=O)Nc1cc(Nc2nccc(-c3ccc4c(cnn4C)c3)n2)c(OC)cc1N1CCN(C2CCOCC2)CC1 [compound 235]	5.62	7.03	7.60	25.5
C=CC(=O)Nc1cc(Nc2cc(-c3ccc4c(cnn4C)c3)ncn2)c(OCC)cc1N1CCN(CCN(C)C)CC1 [compound 117]	6.17	7.95	7.95	60.1
C=CC(=O)Nc1c(N(C)CCN(C)C(C)C)cc(OC)c(Nc2cc(-c3ccc4cnn(C)c4c3)ncn2)c1F [compound 198]	5.63	7.11	7.18	30.4
C=CC(=O)Nc1cc(Nc2cc(-c3ccc4c(cnn4C(C)C)c3)ncn2)c(OC)cc1N(C)C1CCN(C)CC1 [compound 85]	5.74	7.14	7.25	25.4
C=CC(=O)Nc1c(N(C)CCN(C)C(C)C)cc(OC)c(Nc2cc(-c3ccc4c(cnn4C)c3)ncn2)c1F [compound 197]	5.87	7.68	7.87	65.1
C=CC(=O)Nc1cc(Nc2cc(-c3ccc4c(cnn4C)c3)ncn2)c(OC(C)C)cc1N(C)CCN(C)C [compound 75]	5.82	7.61	7.87	61.7

Continued, in another order:

pIC50 [1]	pIC50 [2]	pIC50 [3]	Structure (SMILES)	A-431/NCI-H1975 Selectivity [2]
5.87	7.54	7.50	C=CC(=O)Nc1cc(Nc2cc(-c3ccc4c(cnn4C)c3)ncn2)c(OC(F)F)cc1N1CCC(N2C[C@@H](C)O[C@@H](C)C2)CC1 [compound 148]	46.9
6.12	7.81	7.75	C=CC(=O)Nc1cc(Nc2cc(-c3ccc4c(cnn4C)c3)ncn2)c(OC)cc1N1CCN(C(=O)CN(C)C)CC1 [compound 135]	
5.78	7.49	7.96	C=CC(=O)Nc1cc(Nc2cc(-c3ccc4cnn(C)c4c3)ncn2)c(OC)cc1N1CCC(N2CCN(C(C)C)CC2)CC1 [compound 157]	50.6
6.05	7.84	7.82	C=CC(=O)Nc1cc(Nc2cc(-c3ccc4c(cnn4C)c3)ncn2)c(OC(F)F)cc1N(C)CCN1CCN(C)CC1 [compound 67]	61.0
5.58	7.30	7.39	C=CC(=O)Nc1cc(Nc2cc(-c3ccc4cnn(C)c4c3)ncn2)c(OC(F)F)cc1N(C)C1CCN(C)C1 (stereo not drawn) [compound 165]	53.0
5.57	7.27	7.10	C=CC(=O)Nc1cc(Nc2cc(-c3ccc4c(cnn4C)c3)ncn2)c(OC(F)F)cc1N1CCN(CCO)CC1 [compound 273]	50.2
5.85	7.46	7.44	C=CC(=O)Nc1cc(Nc2cc(-c3ccc4cnn(C)c4c3)ncn2)c(OC)cc1N1C[C@@H](C)N(C)[C@@H](C)C1 [compound 154]	
